Test system: panel of breast cancer cell lines
Assay: Compound A with targeted agents and chemotherapies, 72-hour in vitro proliferation assays
Type: cell-based
Conditions: 72-hour proliferation
[1] = AU565 cell line, compound A × partner
[2] = BT-20 cell line, compound A × partner
[3] = BT-474 cell line, compound A × partner
[4] = BT-549 cell line, compound A × partner
[5] = CAL-51 cell line, compound A × partner
[6] = CAL-85-1 cell line, compound A × partner
[7] = CAL-120 cell line, compound A × partner
[8] = CAL-148 cell line, compound A × partner
[9] = CAMA-1 cell line, compound A × partner
[10] = DU-4475 cell line, compound A × partner
[11] = EVSA-T cell line, compound A × partner
[12] = HCC1143 cell line, compound A × partner
[13] = MCF7 cells, Compound A × partner agent
[14] = MDA-MB-175-VII cells, Compound A × partner agent
[15] = MDA-MB-231 cells, Compound A × partner agent
[16] = MDA-MB-361 cells, Compound A × partner agent
[17] = MDA-MB-436 cells, Compound A × partner agent
[18] = MDA-MB-453 cells, Compound A × partner agent
[19] = MDA-MB-468 cells, Compound A × partner agent
[20] = SK-BR-3 cells, Compound A × partner agent
[21] = SUM159PT cells, combination of compound A with the named agent
[22] = T47D cells, combination of compound A with the named agent
[23] = ZR-75-1 cells, combination of compound A with the named agent
[24] = ZR-75-30 cells, combination of compound A with the named agent

SMILES: CC(=O)O[C@@]12CO[C@@H]1C[C@H](O)[C@@]1(C)C(=O)[C@H](O)C3=C(C)[C@@H](OC(=O)[C@H](O)[C@@H](NC(=O)OC(C)(C)C)c4ccccc4)C[C@@](O)([C@@H](OC(=O)c4ccccc4)[C@H]21)C3(C)C [Docetaxel]
- Bliss Volume [1]: 16.97
- HSA volume [1]: 3.68
- Loewe Volume [1]: 1.71
- Synergy Score [1]: 7.58
- Bliss Volume [2]: 27.23
- HSA volume [2]: 21.05
- Loewe Volume [2]: 19.90
- Synergy Score [2]: 39.72
- Bliss Volume [3]: 16.39
- HSA volume [3]: 9.80
- Loewe Volume [3]: 8.62
- Synergy Score [3]: 14.51
- Bliss Volume [4]: 22.57
- HSA volume [4]: 22.13
- Loewe Volume [4]: 22.04
- Synergy Score [4]: 39.66
- Bliss Volume [5]: 2.26
- HSA volume [5]: 3.35
- Loewe Volume [5]: 3.12
- Synergy Score [5]: 4.88
- Bliss Volume [6]: 13.68
- HSA volume [6]: 11.86
- Loewe Volume [6]: 11.10
- Synergy Score [6]: 19.64
- Bliss Volume [7]: 8.92
- HSA volume [7]: 7.98
- Loewe Volume [7]: 8.39
- Synergy Score [7]: 11.63
- Bliss Volume [8]: 15.94
- HSA volume [8]: 13.90
- Loewe Volume [8]: 12.92
- Synergy Score [8]: 28.74
- Bliss Volume [9]: 29.57
- HSA volume [9]: 6.98
- Loewe Volume [9]: 4.88
- Synergy Score [9]: 13.30
- Bliss Volume [10]: 19.28
- HSA volume [10]: 13.68
- Loewe Volume [10]: 12.74
- Synergy Score [10]: 20.30
- Bliss Volume [11]: 32.24
- HSA volume [11]: 12.42
- Loewe Volume [11]: 12.22
- Synergy Score [11]: 24.87
- Bliss Volume (HCC38, compound A × partner): 23.64
- HSA volume (HCC38, compound A × partner): 16.36
- Loewe Volume (HCC38, compound A × partner): 14.95
- Synergy Score (HCC38, compound A × partner): 29.56
- Bliss Volume (HCC70, compound A × partner): 25.33
- HSA volume (HCC70, compound A × partner): 22.90
- Loewe Volume (HCC70, compound A × partner): 20.81
- Synergy Score (HCC70, compound A × partner): 39.82
- Bliss Volume [12]: 11.00
- HSA volume [12]: 9.41
- Loewe Volume [12]: 8.32
- Synergy Score [12]: 18.84
- Bliss Volume (HCC1569, compound A × partner): 6.58
- HSA volume (HCC1569, compound A × partner): 8.56
- Loewe Volume (HCC1569, compound A × partner): 9.52
- Synergy Score (HCC1569, compound A × partner): 11.65
- Bliss Volume (HCC1806, compound A × partner): 17.46
- HSA volume (HCC1806, compound A × partner): 12.45
- Loewe Volume (HCC1806, compound A × partner): 12.66
- Synergy Score (HCC1806, compound A × partner): 25.50
- Bliss Volume (HCC1937, compound A × partner): 10.96
- HSA volume (HCC1937, compound A × partner): 11.56
- Loewe Volume (HCC1937, compound A × partner): 11.67
- Synergy Score (HCC1937, compound A × partner): 11.60
- Bliss Volume (HCC1954, compound A × partner): 25.28
- HSA volume (HCC1954, compound A × partner): 14.25
- Loewe Volume (HCC1954, compound A × partner): 12.73
- Synergy Score (HCC1954, compound A × partner): 25.34
- Bliss Volume (HCC2218, compound A × partner): 11.69
- HSA volume (HCC2218, compound A × partner): 6.53
- Loewe Volume (HCC2218, compound A × partner): 5.20
- Synergy Score (HCC2218, compound A × partner): 10.71
- Bliss Volume (HDQ-P1, compound A × partner): 7.85
- HSA volume (HDQ-P1, compound A × partner): 8.96
- Loewe Volume (HDQ-P1, compound A × partner): 8.67
- Synergy Score (HDQ-P1, compound A × partner): 11.43
- Bliss Volume (HMC-1-8, compound A × partner): 31.00
- HSA volume (HMC-1-8, compound A × partner): 8.49
- Loewe Volume (HMC-1-8, compound A × partner): 7.43
- Synergy Score (HMC-1-8, compound A × partner): 16.44
- Bliss Volume (JIMT-1, compound A × partner): 4.03
- HSA volume (JIMT-1, compound A × partner): 4.64
- Loewe Volume (JIMT-1, compound A × partner): 3.81
- Synergy Score (JIMT-1, compound A × partner): 6.23
- Bliss Volume (KPL-1, compound A × partner): 5.18
- HSA volume (KPL-1, compound A × partner): 8.06
- Loewe Volume (KPL-1, compound A × partner): 7.67
- Synergy Score (KPL-1, compound A × partner): 10.20
- Bliss Volume [13]: 14.35
- HSA volume [13]: 11.99
- Loewe Volume [13]: 11.64
- Synergy Score [13]: 17.93
- Bliss Volume [14]: 16.97
- HSA volume [14]: 10.22
- Loewe Volume [14]: 12.14
- Synergy Score [14]: 15.31
- Bliss Volume [15]: 5.15
- HSA volume [15]: 7.49
- Loewe Volume [15]: 6.89
- Synergy Score [15]: 11.57
- Bliss Volume [16]: −0.86
- HSA volume [16]: −2.31
- Loewe Volume [16]: −3.71
- Synergy Score [16]: 4.61
- Bliss Volume [17]: 1.49
- HSA volume [17]: 1.67
- Loewe Volume [17]: 1.48
- Bliss Volume [18]: 30.81
- HSA volume [18]: 22.87
- Loewe Volume [18]: 21.87
- Synergy Score [18]: 44.90
- Bliss Volume [19]: 28.07
- HSA volume [19]: 11.28
- Loewe Volume [19]: 10.11
- Synergy Score [19]: 20.73
- Bliss Volume [20]: 14.70
- HSA volume [20]: 4.18
- Loewe Volume [20]: 2.95
- Synergy Score [20]: 7.33
- Bliss Volume [21]: 18.66
- HSA volume [21]: 18.88
- Loewe Volume [21]: 17.94
- Synergy Score [21]: 33.03
- Bliss Volume [22]: −1.55
- HSA volume [22]: 2.30
- Loewe Volume [22]: 1.76
- Synergy Score [22]: 6.53
- Bliss Volume [23]: 16.15
- HSA volume [23]: 16.66
- Loewe Volume [23]: 17.29
- Synergy Score [23]: 25.42
- Bliss Volume [24]: 6.48
- HSA volume [24]: 3.70
- Loewe Volume [24]: 2.62
- Synergy Score [24]: 8.08
